Results on 2 molecules are retold here after PMC4404410, “Crystal structure of X‐prolyl aminopeptidase fromCaenorhabditis elegans: A cytosolic enzyme with a di‐nuclear active site” (FEBS Open Bio, 2015).

The target of data set [1] is T1, C. elegans APP-1 (X-prolyl aminopeptidase, aminopeptidase P1) (Caenorhabditis elegans, UniProt O44750).
T1 construct: full length (residues 1-616), N-terminal His-tag kept, pET19b, E. coli BL21 Star (DE3); homodimer, monomer 71977 Da by MS; two Zn2+ per monomer in crystal
T1 sequence (O44750 1-616): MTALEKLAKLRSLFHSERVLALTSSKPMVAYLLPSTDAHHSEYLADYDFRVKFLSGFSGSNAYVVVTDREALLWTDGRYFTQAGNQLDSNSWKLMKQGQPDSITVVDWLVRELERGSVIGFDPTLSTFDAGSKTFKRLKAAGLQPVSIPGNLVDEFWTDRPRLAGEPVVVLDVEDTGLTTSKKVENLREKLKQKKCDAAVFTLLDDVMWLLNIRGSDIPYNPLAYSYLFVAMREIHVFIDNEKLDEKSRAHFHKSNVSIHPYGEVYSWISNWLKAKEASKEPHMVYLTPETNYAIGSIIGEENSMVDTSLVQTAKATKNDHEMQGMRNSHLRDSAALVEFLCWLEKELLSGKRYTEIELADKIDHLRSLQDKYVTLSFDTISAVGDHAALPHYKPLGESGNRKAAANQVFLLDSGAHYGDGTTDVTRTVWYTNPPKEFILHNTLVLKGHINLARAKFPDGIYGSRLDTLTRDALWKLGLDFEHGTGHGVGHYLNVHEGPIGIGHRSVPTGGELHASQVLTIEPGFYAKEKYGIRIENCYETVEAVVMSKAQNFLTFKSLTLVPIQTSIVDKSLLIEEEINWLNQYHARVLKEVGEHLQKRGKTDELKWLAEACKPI
Nature of the data set: HPLC assay of bradykinin cleavage ([…] nm). In kind it is biochemical.

Data set [2] concerns the molecule itself. Kind of data set: AUC; sedimentation velocity; 0.3 mg/ml APP-1 dialysed against 10 mM Tris/HCl pH 7.5, 150 mM KCl; 40,000 rpm, 20 °C; Rayleigh interference and absorbance at 275 nm.

Values joined by “and” are separate entries in the source; they are usually repeats but may differ in a detail not shown here. Identical values can stand only once.

For orientation: inhibition means the percentage by which the read-out fell short of the control. A higher inhibition goes with strong suppression. Regarding `C[C@H](NC(=O)[C@@H]1CCCN1C(=O)[C@@H]1CCCN1C(=O)[C@@H](O)[C@H](N)Cc1ccccc1)C(N)=O` [apstatin], 10 µM produced 92% inhibition in data set [1].

B1: Caenorhabditis elegans aminopeptidase P1 (APP-1), recombinant, His-tagged (enzyme, C. elegans, UniProt O44750 1-616, looked up)
chain: MTALEKLAKLRSLFHSERVLALTSSKPMVAYLLPSTDAHHSEYLADYDFRVKFLSGFSGSNAYVVVTDREALLWTDGRYFTQAGNQLDSNSWKLMKQGQPDSITVVDWLVRELERGSVIGFDPTLSTFDAGSKTFKRLKAAGLQPVSIPGNLVDEFWTDRPRLAGEPVVVLDVEDTGLTTSKKVENLREKLKQKKCDAAVFTLLDDVMWLLNIRGSDIPYNPLAYSYLFVAMREIHVFIDNEKLDEKSRAHFHKSNVSIHPYGEVYSWISNWLKAKEASKEPHMVYLTPETNYAIGSIIGEENSMVDTSLVQTAKATKNDHEMQGMRNSHLRDSAALVEFLCWLEKELLSGKRYTEIELADKIDHLRSLQDKYVTLSFDTISAVGDHAALPHYKPLGESGNRKAAANQVFLLDSGAHYGDGTTDVTRTVWYTNPPKEFILHNTLVLKGHINLARAKFPDGIYGSRLDTLTRDALWKLGLDFEHGTGHGVGHYLNVHEGPIGIGHRSVPTGGELHASQVLTIEPGFYAKEKYGIRIENCYETVEAVVMSKAQNFLTFKSLTLVPIQTSIVDKSLLIEEEINWLNQYHARVLKEVGEHLQKRGKTDELKWLAEACKPI
notes: Aminopeptidase P1 (APP-1, X-prolyl aminopeptidase), C. elegans, cytosolic; cDNA amplified with primers from the start codon to the stop codon; residues 1-616 (N-terminal domain 1-163, middle domain 164-318, C-terminal domain 319-616); N-terminal His tag and linker come from pET19b and were not removed; Mass spectrometry fits the His-tagged protein after removal of the start methionine (calculated …)
One may read the stoichiometry N as a count of units in the complex or per binding partner. Take B1: the “stoichiometry N” value in data set [2] is 2 and 4.
